We go through 5 compounds from PMC5584707, “Pro-Secretory Activity and Pharmacology in Rabbits of an Aminophenyl-1,3,5-Triazine CFTR Activator for Dry Eye Disorders” (Investigative Ophthalmology & Visual Science, 2017).

Test [1] relates to ENaC. The experiment in a line: Ocular surface potential difference (PD) in vivo, amiloride-sensitive sodium channel. The note with it: rabbit in vivo, amiloride 100 μM, average. The procedure: (§1) Open-circuit transepithelial potential difference (PD, in mV) at the ocular surface was measured continuously in anesthetized rabbits using a procedure modified from that established in mice.[8] Rabbits were intubated and anesthetized with isoflurane, and respiratory rate, blood pressure, and body temperature were monitored. For PD recording, solutions (see below) were serially perfused at 10 mL/min through PE-90 plastic tubing using a gravity multireservoir pinch-valve system (ALA Scientific, Westbury, NY, USA) and a variable-flow peristaltic pump (medium flow model; Thermo Fisher Scientific, Fair Lawn, NJ, USA). A perfusion catheter was fixed onto an adjustable stereotaxic frame with the tip immersed in solution contacting the ocular surface, as diagrammed in Figure 2A. Excess fluid was aspirated by continuous suction (low-powered wall vacuum) using 1/8-inch tubing (inner diameter 3/32 inch) placed 3 mm from the lateral canthus to maintain near-constant perfusate volume in contact with cornea, bulbar conjunctiva, and palpebral conjunctiva without fluid runoff. The measuring electrode contacted the perfusion catheter and was connected to a high-impedance voltmeter (IsoMilivolt Meter; World Precision Instruments, Sarasota, FL, USA). The reference electrode was grounded using a winged, 25-gauge needle filled with normal saline inserted subcutaneously in the abdomen. […]

The subject of test [2] is ENaC. The experiment in a line: Short-circuit current in freshly isolated conjunctiva, amiloride. The format is biochemical. To be noted: ex vivo rabbit conjunctiva, 10 μM. The procedure: (§2) Short-circuit current was measured in freshly isolated rabbit conjunctiva, as described[16] with modification. Rabbits were euthanized by injection of 150 mg/kg euthasol into the marginal ear vein. The entire eyeball with eyelids intact was removed from the orbit to preserve conjunctival epithelial integrity. Within 10 minutes, a sheet of forniceal and palpebral conjunctiva was dissected, mounted onto a P2304 tissue slider (Physiologic Instruments, San Diego, CA, USA), and placed into the Ussing chamber. The apical and basolateral chambers contained (in mM): 120 NaCl, 3 KCl, 1 CaCl2, 1 MgCl2, 10 glucose, 25 NaHCO3, and 5 HEPES, pH 7.4. Solutions were bubbled with 95% O2/5% CO2 and maintained at 37°C. Hemichambers were connected to a DVC-1000 voltage clamp (World Precision Instruments Inc., Sarasota, FL, USA) via Ag/AgCl electrodes and 3 M KCl agar bridges.

The test system of another test is tear volume in mice. The note with it: delivered topically; cited from earlier work.
The next test relates to human wildtype CFTR. To be noted: cell cultures, cited from earlier work.
Test [3] relates to lacrimal gland ablation models in mice. The arrangement: method as in PMID 26842854. The note with it: cited from earlier work.
Another test deals with dry eye. The arrangement: method as in PMID 15502479. To be noted: United States; cited from earlier work.
Test [4] addresses T1, CFTR chloride conductance at the rabbit ocular surface (Oryctolagus cuniculus, UniProt Q00554).
T1 construct: from tissue; host or cells: ocular surface (cornea, bulbar and palpebral conjunctiva) of living anesthetized rabbits
The experiment in a line: Ocular surface potential difference (PD) in vivo, CFTR. The method, then: as §1

The target of test [5] is T2, CFTR in rabbit forniceal and palpebral conjunctiva (Oryctolagus cuniculus, UniProt Q00554).
T2 construct: a sheet of forniceal and palpebral conjunctiva was dissected; from tissue; host or cells: freshly isolated rabbit forniceal and palpebral conjunctiva in an Ussing chamber
The experiment in a line: Short-circuit current in freshly isolated conjunctiva, CFTR. The class given is biochemical. The note with it: ex vivo rabbit conjunctiva. The method, then:
as §2, with “Solutions were bubbled with 95% O2/5% CO2 and maintained at 37°C.” left out

T2 sequence (Q00554 whole entry): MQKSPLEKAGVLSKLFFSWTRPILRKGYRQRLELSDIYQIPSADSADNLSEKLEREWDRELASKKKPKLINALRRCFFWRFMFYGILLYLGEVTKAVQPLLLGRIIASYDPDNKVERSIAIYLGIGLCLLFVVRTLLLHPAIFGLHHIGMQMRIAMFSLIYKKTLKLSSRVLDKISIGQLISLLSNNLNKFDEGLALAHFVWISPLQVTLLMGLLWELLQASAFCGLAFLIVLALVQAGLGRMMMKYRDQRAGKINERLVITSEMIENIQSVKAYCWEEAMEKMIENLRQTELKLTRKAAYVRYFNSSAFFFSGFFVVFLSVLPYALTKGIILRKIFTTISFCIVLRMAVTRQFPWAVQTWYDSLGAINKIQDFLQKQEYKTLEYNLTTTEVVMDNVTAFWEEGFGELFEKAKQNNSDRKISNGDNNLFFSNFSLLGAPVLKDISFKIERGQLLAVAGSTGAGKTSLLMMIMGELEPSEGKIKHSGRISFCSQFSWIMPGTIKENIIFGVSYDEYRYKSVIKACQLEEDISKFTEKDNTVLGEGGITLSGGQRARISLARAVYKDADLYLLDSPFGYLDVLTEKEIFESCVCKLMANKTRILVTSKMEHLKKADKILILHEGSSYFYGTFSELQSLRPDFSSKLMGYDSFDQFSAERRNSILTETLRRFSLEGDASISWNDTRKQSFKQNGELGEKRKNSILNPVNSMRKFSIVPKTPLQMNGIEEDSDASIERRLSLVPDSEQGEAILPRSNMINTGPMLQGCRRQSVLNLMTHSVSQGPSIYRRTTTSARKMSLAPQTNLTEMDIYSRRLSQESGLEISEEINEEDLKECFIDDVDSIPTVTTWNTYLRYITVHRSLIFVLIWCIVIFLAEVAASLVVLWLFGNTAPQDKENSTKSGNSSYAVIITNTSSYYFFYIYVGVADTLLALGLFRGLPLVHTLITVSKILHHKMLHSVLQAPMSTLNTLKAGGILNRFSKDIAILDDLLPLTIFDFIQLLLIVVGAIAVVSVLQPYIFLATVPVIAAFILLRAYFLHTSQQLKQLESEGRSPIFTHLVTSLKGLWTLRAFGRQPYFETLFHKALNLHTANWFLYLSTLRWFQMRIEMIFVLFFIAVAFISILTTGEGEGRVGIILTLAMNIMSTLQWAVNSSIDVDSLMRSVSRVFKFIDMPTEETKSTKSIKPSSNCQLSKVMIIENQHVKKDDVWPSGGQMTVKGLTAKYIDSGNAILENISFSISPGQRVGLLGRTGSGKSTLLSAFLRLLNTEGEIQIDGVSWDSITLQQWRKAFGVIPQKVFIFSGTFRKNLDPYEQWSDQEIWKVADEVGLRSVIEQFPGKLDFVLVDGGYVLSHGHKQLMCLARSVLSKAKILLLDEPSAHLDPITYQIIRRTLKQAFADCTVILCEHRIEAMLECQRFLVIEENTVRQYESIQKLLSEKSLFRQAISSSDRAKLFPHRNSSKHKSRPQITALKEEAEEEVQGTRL
T1 sequence (Q00554 whole entry): as above

In the case of `N=C(N)NC(=O)c1nc(Cl)c(N)nc1N` [amiloride], in the test on ENaC [1], the “Depolarization of ocular surface PD” value is listed as roughly 5 mV. The “Effect on short-circuit current” value in the test on ENaC [2] is “no amiloride effect”; with ENaC [2] (listed as Amiloride), “no effect”.
As to `CCN(CC)c1nc(Nc2ccccc2)nc(OC(C(F)(F)F)C(F)(F)F)n1` [CFTRact-K089], in the test with tear volume in mice, the “Duration of increase in tear volume” value is 4 h and the “Effect on tear volume” value is given as “doubled tear volume”. The “Extent of CFTR activation” value in the test with human wildtype CFTR was “fully activated CFTR”. Also, in the test on human wildtype CFTR (read-out: EC50 of CFTR activation), the half-maximal effective concentration (EC50) is roughly 250 nM. The “Effect on pathology when administered after development of dry eye” value in test [3] was “reversed pathology”. In addition, in test [3] (three times daily), the “Effect on corneal epithelial disruption” value is “prevented corneal epithelial disruption” and the “Effect on tear volume” value is recorded as “normalized tear volume”.
On to `O=c1ccn([C@@H]2O[C@H](COP(=O)(O)OP(=O)(O)OP(=O)(O)OP(=O)(O)OC[C@H]3O[C@@H](n4ccc(=O)[nH]c4=O)[C@H](O)[C@@H]3O)[C@@H](O)[C@H]2O)c(=O)[nH]1` [diquafosol], for which the “Efficacy in phase III trials” value with dry eye is given as “did not show efficacy”.
Turning to `C=C[C@@]1(C)CC(=O)[C@]2(O)[C@@]3(C)[C@@H](O)CCC(C)(C)[C@@H]3[C@H](O)[C@H](OC(C)=O)[C@@]2(C)O1` [forskolin], in test [4] (forskolin 20 μM after 10 μM CFTRact-K267), the “Further change in ocular surface PD on top of CFTRact-K267” value is on record as “minimally further increased”. The “CFTR activation (short-circuit current)” value in test [5] (high concentration) is reported as “Maximal CFTR activation”. Further, the “Change in short-circuit current” value in test [5] (low concentration 25 nM) was “small increase in current”.
Consider CFTRinh-172, for which, in test [4] (CFTRinh-172 10 μM in final perfusion solution), the “Reversal of PD changes” value is listed as “largely reversed”. The “Effect on increases in short-circuit current” value in test [5] (CFTR inhibitor added last) was “inhibited”.

The term EC50 denotes the concentration needed to bring the measured effect to its halfway point.
